From article PMC9331716, “Nucleoside Transport and Nucleobase Uptake Null Mutants in Leishmania mexicana for the Routine Expression and Characterization of Purine and Pyrimidine Transporters” (International Journal of Molecular Sciences, 2022)
Several values for one entry are separate records, joined by “and”; a condition that tells them apart may be missing. Equal entries are not always repeated.

What was measured:
[1] = biological target: FurD; parameters: method as in PMID 17520477; conditions: FurD in A. nidulans, cited from earlier work
[2] = biological target: Aspergillus nidulans uracil transporter FurD (Aspergillus nidulans, UniProt A6N844); assay: Transport assay, FurD expressed in Lmex5FURes; type: cell-based
Experimental: (§1) Transport assays were performed exactly as described previously. Briefly, 10^7 cells in 100 μL of assay buffer (AB) were mixed with an equal volume of radiolabel at 2× concentration for a preset time. The incubation was terminated by the addition of 700 μL of “Stop solution”, being ice-cold 1 mM solution of unlabelled permeant, followed by immediate centrifugation through an oil layer in a microfuge at 13,000 rpm. This causes the cell pellet to reside under the oil layer and isolated from residual radiolabel in the assay buffer. The tubes were flash-frozen in liquid nitrogen and the bottom tip, containing the cell pellet, cut off and collected in a scintillation tube. Cells were solubilized by gentle shaking after addition of a 2% SDS solution, before the addition of scintillation fluid (Scintilogic U, Lablogic, Sheffield, UK); the tubes were left to stand in the dark overnight before counting in a 300SL Hidex Scintillation Counter (Lablogic). Linear and nonlinear regression analyses were carried out using GraphPad Prism versions 8.0 and higher. […] However, all parameters, including Km, Vmax, Ki, given are the average of at least three separate, independent determinations; errors given are standard errors, unless otherwise specified.

[3] = test system: Lmex5FURes cells; assay: Radiolabel transport assay in Lmex5FURes cells; type: cell-based, Leishmania mexicana
Experimental: as §1

[4] = biological target: T1, TvagENT3 (Trichomonas vaginalis, UniProt A2E5Q3); assay: cell-based
T1 sequence (A2E5Q3 entry or part of it): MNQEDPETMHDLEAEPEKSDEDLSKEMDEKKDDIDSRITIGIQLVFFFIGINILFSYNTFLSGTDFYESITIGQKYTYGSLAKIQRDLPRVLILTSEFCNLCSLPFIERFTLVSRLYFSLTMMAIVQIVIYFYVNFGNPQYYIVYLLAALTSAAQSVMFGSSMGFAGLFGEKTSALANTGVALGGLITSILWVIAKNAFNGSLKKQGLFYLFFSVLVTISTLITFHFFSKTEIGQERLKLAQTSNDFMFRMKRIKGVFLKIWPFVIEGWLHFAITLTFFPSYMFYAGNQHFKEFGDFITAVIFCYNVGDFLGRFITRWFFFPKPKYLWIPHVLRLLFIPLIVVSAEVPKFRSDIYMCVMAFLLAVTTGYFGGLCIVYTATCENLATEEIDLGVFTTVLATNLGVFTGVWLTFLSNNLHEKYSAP
Experimental: as §1

[5] = test system: L. mexicana NT1-KO cells; assay: Radiolabel transport assay in NT1-KO cells; type: cell-based, Leishmania mexicana
Experimental: as §1

[6] = biological target: T2, TcrNB2 (Trypanosoma cruzi, UniProt Q4DHG0); assay: Transport assay, TcrNB2 expressed in LmexNT3-KO; type: cell-based; conditions: 1 mM inhibitor, TcrNB2 in NT3-KO; read-out: inhibition of adenine uptake
T2 sequence (Q4DHG0 1-440): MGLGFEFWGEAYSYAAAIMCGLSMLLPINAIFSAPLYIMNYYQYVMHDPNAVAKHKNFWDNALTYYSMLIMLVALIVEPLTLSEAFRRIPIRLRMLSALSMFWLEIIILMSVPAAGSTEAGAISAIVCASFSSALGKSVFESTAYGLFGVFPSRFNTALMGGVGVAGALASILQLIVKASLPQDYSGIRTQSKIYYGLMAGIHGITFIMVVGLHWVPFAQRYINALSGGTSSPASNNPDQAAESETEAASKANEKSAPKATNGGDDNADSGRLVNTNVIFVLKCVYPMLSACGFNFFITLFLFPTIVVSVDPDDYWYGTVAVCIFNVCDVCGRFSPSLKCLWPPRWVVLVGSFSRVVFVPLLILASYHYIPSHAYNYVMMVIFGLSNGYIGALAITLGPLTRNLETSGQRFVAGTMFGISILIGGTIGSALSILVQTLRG
Experimental: as §1

[7] = biological target: T1, TvagENT3; conditions: TvagENT3 expressed in T. brucei; cited from earlier work
[8] = test system: LmexNT1.1; assay: Transport assay, LmexNT1.1 expressed in SUPKO; type: cell-based, Leishmania mexicana; conditions: SUPKO expressing LmexNT1.1, 50 nM radiolabel
Experimental: as §1

[9] = biological target: T2, TcrNB2; assay: Transport assay, TcrNB2 expressed in NT1-KO; type: cell-based; conditions: 50 nM [^3H]-adenosine, 100 nM [^3H]-hypoxanthine, 100 nM [^3H]-uracil; data not shown
Experimental: as §1

[10] = test system: L. mexicana NT3-KO promastigotes; assay: Radiolabel transport assay in NT3-KO cells; type: cell-based, Leishmania mexicana
Experimental: as §1

[11] = test system: LmexNT1.2; assay: Transport assay, LmexNT1.2 expressed in SUPKO; type: cell-based, Leishmania mexicana; conditions: SUPKO expressing LmexNT1.2, 50 nM radiolabel
Experimental: as §1

[12] = test system: L. mexicana SUPKO (ΔNT1.1/1.2/2) cells; assay: Radiolabel transport assay in SUPKO cells; type: cell-based, Leishmania mexicana; conditions: for rate of uptake: SUPKO cells
Experimental: as §1

[13] = test system: L. mexicana cas9 cells; assay: Radiolabel transport assay in cas9 cells; type: cell-based, Leishmania mexicana; conditions: for rate of uptake: cas9 cells
Experimental: as §1

[14] = test system: L. mexicana NT2-KO promastigotes; assay: Resazurin (Alamar blue) drug sensitivity assay, NT2-KO line; type: cell-based; conditions: Leishmania mexicana, NT2-KO strain, n = 3
Experimental: (§2) The assay is based on the reduction of the dye resazurin (Alamar blue) by live but not dead cells and was performed with various strains of Leishmania mexicana promastigotes, exactly as described. Briefly, doubling dilutions starting at 100 µM were set up over 2 rows of a 96-well plate and 2 × 10^5 cells were added to each well, followed by incubation at 25 °C. After 72 h, 20 µL of 125 µg/mL resazurin solution was added and the plates incubated for a further 24 h. Fluorescence was determined in a FLUOstar OPTIMA plate reader (BMG Labtech, Ortenberg, Germany), reading the fluorescence intensity in arbitrary units (A.U.) at 544 nm wavelength for excitation and 620 nm wavelength for emission. The EC50 values and fluorescence data were determined and plotted to a sigmoid curve with variable slope, using the GraphPad Prism 8 software package. All EC50 values were determined on at least three independent occasions and are presented as average ± SEM.

[15] = test system: L. mexicana cas9 cells; assay: Growth curve of cas9 cells with selection agents; type: cell-based, Leishmania mexicana; conditions: 5 μM tubercidin, 5 μg/mL blasticidin, 20 µg/mL puromycin, 1 µM formycin B
Experimental: The growth rates of the L. mexicana promastigotes were determined in the standard HOMEM medium supplemented with 10% FBS, in 12-well plates, in triplicate. After every 24 h, cells were counted in a sample of the culture, using either a Neubauer hemocytometer chamber (Hawksley, Birmingham, UK) or by a coulter particle counter and size analyzer (Beckman, Brea, CA, USA) to count the cells in triplicate. An average of the triplicate readings was taken and plotted using GraphPad Prism 8 software to obtain the growth curves.

[16] = test system: L. mexicana cas9 promastigotes; assay: Resazurin (Alamar blue) drug sensitivity assay, cas9 control line; type: cell-based; conditions: Leishmania mexicana, n = 3
Experimental: as §2

[17] = biological target: L. major U1 transporter; parameters: method as in PMID 15796010; conditions: unit printed only with the uridine value; cited from earlier work
[18] = substrate: O=c1cc[nH]c(=O)[nH]1; assay: Transport assay, FurD expressed in Lmex5FURes; type: cell-based, Aspergillus nidulans; conditions: other: FurD in Lmex5FURes, 100 nM [^3H]-uracil over 10 s
Experimental: as §1

[19] = 50 nM radiolabel, listed as [^3H]-adenosine

Question: Which results are given for O=c1[nH]cc(F)c(=O)[nH]1 [5FU, 5-fluorouracil]?
Answer: Ki ([1]; unit printed only with the uracil Km): 460 nM; Ki ([2]; FurD in Lmex5FURes, inhibition of [^3H]-uracil uptake): 700 ± 250 nM; uptake in Lmex5FURes control ([3]; 100 nM [^3H]-5FU, p = 0.27): not significantly different from zero

Question: For Nc1ncnc2c1ncn2[C@@H]1O[C@H](CO)[C@@H](O)[C@H]1O [adenosine], which “uptake lower in SUPKO than in SUPKO expressing TvagENT3” value ([4]; 50 nM radiolabel) is on record?
Answer: 94.6%

Question: And the rate of uptake ([4]; SUPKO expressing TvagENT3, 50 nM radiolabel)?
Answer: 0.0080 ± 0.0004 pmol(10^7 cells)^−1s^−1

Question: And the “rate of uptake lower in NT1-KO than in cas9” value ([5]; 50 nM radiolabel)?
Answer: 99.4%

Question: What about the rate of uptake ([5]; NT1-KO cells, 50 nM radiolabel) of the same molecule?
Answer: 0.00048 ± 0.00007 pmol(10^7 cells)^−1s^−1

Question: What about the inhibition at 1000 µM [6] of the same molecule?
Answer: 15.5 ± 11.7%

Question: And the Ki [7]?
Answer: 870 ± 150 nM

Question: And the rate of uptake [8]?
Answer: 0.27 ± 0.006 pmol(10^7 cells)^−1s^−1

Question: What about the “effect of TcrNB2 expression on uptake in NT1-KO cells” value [9] of the same molecule?
Answer: did not increase

Question: And the rate of uptake ([10]; NT3-KO cells, 100 nM radiolabel)?
Answer: 0.55 ± 0.05 pmol(10^7 cells)^−1s^−1

Question: And the “upregulation of uptake rate in NT3-KO relative to cas9” value ([10]; adenosine and inosine at 100 nM, separate experiments listed singly, listed as [^3H]-adenosine)?
Answer: 4.0 fold and 6.4 fold

Question: What about the rate of uptake [11] of the same molecule?
Answer: 0.36 ± 0.03 pmol(10^7 cells)^−1s^−1

Question: And the “uptake reduced in SUPKO compared to cas9” value ([12]; 50 nM radiolabel)?
Answer: 99%

Question: What about the rate of uptake ([12]; 50 nM radiolabel) of the same molecule?
Answer: 0.00063 pmol(10^7 cells)^−1s^−1

Question: What about the rate of uptake [12, 19] of the same molecule?
Answer: 0.0006 ± 0.00007 pmol(10^7 cells)^−1s^−1

Question: What about the rate of uptake ([12]; 100 nM radiolabel) of the same molecule?
Answer: 0.00046 ± 0.00002 pmol(10^7 cells)^−1s^−1

Question: And the “inhibition of [^3H]-thymidine uptake” value ([13]; 0.1 µM [^3H]-thymidine, adenosine concentration and cell line not explicitly printed)?
Answer: fully inhibited

Question: And the rate of uptake [13, 19]?
Answer: 0.082 ± 0.004 pmol(10^7 cells)^−1s^−1 and 0.081 ± 0.006 pmol(10^7 cells)^−1s^−1

Question: What about the rate of uptake ([13]; 100 nM radiolabel, listed as [^3H]-adenosine) of the same molecule?
Answer: 0.082 ± 0.004 pmol(10^7 cells)^−1s^−1 and 0.086 ± 0.009 pmol(10^7 cells)^−1s^−1

Question: What does the source list for O=c1[nH]cnc2c([C@@H]3O[C@H](CO)[C@@H](O)[C@H]3O)n[nH]c12 [formycin B]?
Answer: EC50 [14]: 63.5 ± 1.9 µM; sensitivity of cas9 cells in growth curve [15]: confirmed; EC50 [16]: 18 ± 2 nM

Question: What does the source list for O=c1cc[nH]c(=O)[nH]1 [uracil]?
Answer: uptake in NT1-KO compared with cas9 ([5]; 100 nM [^3H]-uracil): identical; effect of TcrNB2 expression on uptake in NT1-KO cells [9]: did not increase; Km [1]: 450 nM; uptake in SUPKO compared with cas9 ([12]; 100 nM [^3H]-uracil, n = 3, p = 0.81): identical; rate of uptake ([12]; 100 nM radiolabel): 0.00032 ± 0.00003 pmol(10^7 cells)^−1s^−1; rate of uptake ([13]; 100 nM radiolabel): 0.00031 ± 0.00002 pmol(10^7 cells)^−1s^−1; rate of uptake ([2]; Lmex5FURes expressing FurD clone 2, 100 nM radiolabel): 0.29 ± 0.02 pmol(10^7 cells)^−1s^−1; rate of uptake ([3]; Lmex5FURes cells, 100 nM radiolabel): 0.00057 ± 0.0001 pmol(10^7 cells)^−1s^−1; Ki [17]: 320 ± 70 nM

B1: Aspergillus nidulans uracil transporter FurD (Aspergillus nidulans) (protein)
chain: MRFGRFHLRVEQSRSAFASGNARWTNLDLDPVPRAGRVWGPLSFISYWISDAFNAATWQFASSIIAVGLSWRESLGIVALSFFIISFVIAANGAVGSIYHIPFPVIARASWGFWGSYIAIISRVILAIFWFAIQNVNGANAVKAMISAIWPSFLSMKNTIPQDQGIETNTMIAYMIFWIVQMPFLCIHPNKVRWLFATKSVLVPAAWIAILIWAFVAEGKGALFEQRATVSGSQYSWVWLASMTSVLGNYATLSVNQSDFSRYSRVSAKWQLLYIPLLPVIFTFISFIGIAASSAGWTRYNTPSIPWDPIELISHWDSRAARFFGAFSFALASLGVNISANSISAANDLMALFPTYVDLRRGQIICGVISWALVPWKILESASNFLNFMSAYAIFLGPIAAIMLWDFWLIKNRKYDTVALYQPDTPIYRFNAWLVNWRAVVAFLVGVIPSLPGLSNSVNSRIQVGVGIHPYQFGWLLGFVGTSLVYIALSYGFPVREALIERAVLSDEVYEGREVEGEGVEEGREELGESKREGVGKEKGFAVY
Question: With B1 as the molecule, how does the Km [18] read?
Answer: 0.89 ± 0.20 µM
